One data set deals with Bile salt export pump (Homo sapiens, UniProt O95342). Description: Inhibition of human BSEP expressed in recombinant baculovirus infected insect Sf9 cell membrane vesicles assessed as [3H]-taurocholate transport preincubated for 5 mins followed by ATP or AMP addition measured after 5 mins by scintillation counting method.
In the next data set the test system is U-937. Put plainly: Inhibition of LPS-induced TNFalpha production in human U937 cells preincubated for 1 hr followed by LPS addition measured after 4 hrs by electro-chemiluminescence method. It counts as functional, cell-based.
Data set [1] has as its target T1, MAP kinase-activated protein kinase 2 (Homo sapiens, UniProt P49137). Description: Inhibition of MK2 in human U937 cells assessed as reduction in LPS-stimulated HSP27 phosphorylation at Ser82 preincubated for 1 hr followed by LPS addition measured after 30 mins by Western blot analysis. It counts as cell-based, U-937. (In general: In western blotting, separated proteins are transferred to a membrane and probed.)
Target sequence in this assay (P49137 whole entry): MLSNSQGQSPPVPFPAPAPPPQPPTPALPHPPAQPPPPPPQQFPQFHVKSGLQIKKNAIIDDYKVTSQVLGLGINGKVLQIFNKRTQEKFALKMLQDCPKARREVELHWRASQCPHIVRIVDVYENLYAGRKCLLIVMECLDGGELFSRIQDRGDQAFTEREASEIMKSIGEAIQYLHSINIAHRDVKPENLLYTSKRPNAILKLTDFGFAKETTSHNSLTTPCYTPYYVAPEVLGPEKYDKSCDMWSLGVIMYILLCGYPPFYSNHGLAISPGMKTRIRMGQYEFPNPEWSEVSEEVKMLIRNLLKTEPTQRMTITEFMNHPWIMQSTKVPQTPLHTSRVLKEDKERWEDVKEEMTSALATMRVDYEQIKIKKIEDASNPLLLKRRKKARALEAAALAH

Data set [2] relates to Rattus norvegicus. Description: Anti-inflammatory activity in po dosed Lewis rat model of LPS-induced acute endotoxemia inflammation assessed as inhibition of LPS-induced TNFalpha production administered through gavage pretreated for 4 hrs followed by LPS challenge measured after 90 mins by ELISA relative to control. It counts as functional.
In data set [3] the test system is Rattus norvegicus. Description: Anti-inflammatory activity in Lewis rat model of Streptococcal cell wall-induced arthritis assessed as reduction in chronic hind paw swelling up to 100 mg/kg, po bid administered through gavage for 10 to 21 days measured on day 21 by displacement plethysmometric method relative to control. It counts as functional.
The nature of data set [4]: Tmax in Sprague-Dawley rat plasma at 3 mg/kg, po. It counts as ADME, organism-based.
A short description of data set [5]: Terminal half life in Sprague-Dawley rat plasma at 3 mg/kg, po. The note with it: read-out: beta t1/2 (converted). The format is ADME, organism-based.
For data set [6], the system named is Canis familiaris. Description: Hepatotoxicity in beagle dog assessed as increase in serum bile acids at 750 mg/kg, po qd administered as single dose through gavage by LC-MS/MS analysis relative to control. It counts as toxicity, organism-based, Canis lupus familiaris. The following applies: in vivo.
Data set [7] has as its system Canis familiaris. Description: Hepatotoxicity in beagle dog assessed as increase in total bilirubin at 750 mg/kg, po qd administered as single dose through gavage by LC-MS/MS analysis relative to control. It counts as toxicity, organism-based, Canis lupus familiaris. The following applies: in vivo.
Data set [8] in a line: Inhibition of P-gp in MDCK-MDR1 cells after 30 mins by Calcein-AM assay. It counts as cell-based, Canis lupus familiaris.
Data set [9] can be described thus: Inhibition of MRP2 in MDCK cells after 15 mins by Calcein-AM assay. The format is cell-based, Canis lupus familiaris.
Data set [10] addresses T1, MAP kinase-activated protein kinase 2. Description: Inhibition of recombinant human N-terminal GST-tagged MK2 (46 to 400 residues) expressed in Escherichia coli in presence of radiolabelled ATP by radiometric assay.
Target sequence in this assay (P49137 whole entry): as above
In data set [11] the target is Mitogen-activated protein kinase 14 (Homo sapiens) (UniProt Q16539). Description: Inhibition of full length recombinant human N-terminal GST-tagged p38alpha MAP kinase expressed in Escherichia coli assessed as residual activity at 300 uM in presence of radiolabelled ATP by radiometric assay relative to control.
The target in data set [12] is Myosin light chain kinase, smooth muscle (Homo sapiens) (UniProt Q15746). Put plainly: Inhibition of recombinant human N-terminal His6-tagged MLCK (1425 to 1771 residues) expressed in baculovirus infected Sf21 cells assessed as residual activity at 300 uM in presence of radiolabelled ATP by radiometric assay relative to control.
Chain of Myosin light chain kinase, smooth muscle (Homo sapiens) (Q15746 whole entry, the tested form may be a part): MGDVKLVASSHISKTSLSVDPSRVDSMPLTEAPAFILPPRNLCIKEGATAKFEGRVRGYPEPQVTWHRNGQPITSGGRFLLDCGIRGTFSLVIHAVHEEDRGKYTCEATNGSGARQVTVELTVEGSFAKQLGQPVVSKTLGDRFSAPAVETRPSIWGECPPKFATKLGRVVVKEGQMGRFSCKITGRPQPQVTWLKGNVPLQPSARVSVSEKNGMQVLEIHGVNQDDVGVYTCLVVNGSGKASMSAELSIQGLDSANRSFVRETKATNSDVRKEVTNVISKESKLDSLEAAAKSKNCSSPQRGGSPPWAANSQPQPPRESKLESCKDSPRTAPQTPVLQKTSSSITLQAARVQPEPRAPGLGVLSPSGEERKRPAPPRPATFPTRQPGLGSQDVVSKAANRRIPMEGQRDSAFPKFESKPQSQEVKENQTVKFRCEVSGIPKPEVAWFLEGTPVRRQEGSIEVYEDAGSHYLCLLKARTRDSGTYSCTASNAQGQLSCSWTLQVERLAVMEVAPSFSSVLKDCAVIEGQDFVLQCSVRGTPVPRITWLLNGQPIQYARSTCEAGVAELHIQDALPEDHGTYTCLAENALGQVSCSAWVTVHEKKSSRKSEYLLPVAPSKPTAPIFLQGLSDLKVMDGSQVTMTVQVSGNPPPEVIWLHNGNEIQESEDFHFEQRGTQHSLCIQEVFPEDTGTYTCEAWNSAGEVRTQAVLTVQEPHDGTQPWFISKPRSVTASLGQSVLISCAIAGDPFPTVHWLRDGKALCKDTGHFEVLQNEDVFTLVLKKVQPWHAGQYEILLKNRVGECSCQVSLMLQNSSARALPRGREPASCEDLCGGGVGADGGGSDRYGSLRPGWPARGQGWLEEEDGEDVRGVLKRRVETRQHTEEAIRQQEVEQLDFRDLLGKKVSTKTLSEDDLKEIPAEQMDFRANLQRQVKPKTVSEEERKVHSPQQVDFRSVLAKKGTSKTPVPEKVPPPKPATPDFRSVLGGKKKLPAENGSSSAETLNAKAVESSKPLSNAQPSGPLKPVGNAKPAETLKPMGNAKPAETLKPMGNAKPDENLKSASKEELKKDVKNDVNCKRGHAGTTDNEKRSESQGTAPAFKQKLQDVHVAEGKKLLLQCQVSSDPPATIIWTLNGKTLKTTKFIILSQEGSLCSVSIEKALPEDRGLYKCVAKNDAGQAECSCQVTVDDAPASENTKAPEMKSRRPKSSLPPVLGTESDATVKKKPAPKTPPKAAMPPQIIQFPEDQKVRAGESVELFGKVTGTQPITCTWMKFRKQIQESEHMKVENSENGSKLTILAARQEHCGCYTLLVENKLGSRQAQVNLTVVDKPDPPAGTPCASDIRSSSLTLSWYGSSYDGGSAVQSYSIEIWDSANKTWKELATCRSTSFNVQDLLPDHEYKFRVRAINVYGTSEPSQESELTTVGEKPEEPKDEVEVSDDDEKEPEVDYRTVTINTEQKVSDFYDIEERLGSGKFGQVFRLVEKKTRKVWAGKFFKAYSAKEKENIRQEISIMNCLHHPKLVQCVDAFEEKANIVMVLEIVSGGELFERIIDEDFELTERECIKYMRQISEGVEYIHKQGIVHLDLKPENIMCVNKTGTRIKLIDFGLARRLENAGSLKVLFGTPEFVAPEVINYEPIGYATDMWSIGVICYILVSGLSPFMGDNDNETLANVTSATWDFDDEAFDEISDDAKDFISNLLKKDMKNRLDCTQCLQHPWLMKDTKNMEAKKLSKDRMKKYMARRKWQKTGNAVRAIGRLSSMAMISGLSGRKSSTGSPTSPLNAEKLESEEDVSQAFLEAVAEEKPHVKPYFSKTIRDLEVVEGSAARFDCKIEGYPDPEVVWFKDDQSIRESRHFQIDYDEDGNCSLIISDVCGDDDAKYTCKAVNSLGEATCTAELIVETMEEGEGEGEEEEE
Data set [13] has as its target T2, Interleukin-1 receptor-associated kinase 4 (Homo sapiens) (UniProt Q9NWZ3).
T2 sequence (whole entry): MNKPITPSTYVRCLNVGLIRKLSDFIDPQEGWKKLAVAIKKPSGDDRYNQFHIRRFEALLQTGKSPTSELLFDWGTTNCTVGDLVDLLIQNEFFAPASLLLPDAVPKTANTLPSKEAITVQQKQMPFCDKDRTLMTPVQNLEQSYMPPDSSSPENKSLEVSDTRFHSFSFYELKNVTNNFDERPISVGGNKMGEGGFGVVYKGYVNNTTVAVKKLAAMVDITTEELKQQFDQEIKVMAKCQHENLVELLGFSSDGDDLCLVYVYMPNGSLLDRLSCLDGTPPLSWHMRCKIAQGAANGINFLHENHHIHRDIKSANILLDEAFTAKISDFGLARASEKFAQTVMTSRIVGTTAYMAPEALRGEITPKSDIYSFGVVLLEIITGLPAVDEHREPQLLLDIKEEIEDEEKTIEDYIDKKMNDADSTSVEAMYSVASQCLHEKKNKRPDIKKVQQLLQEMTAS
Put plainly: Inhibition of full length recombinant human N-terminal His6-tagged IRAK4 expressed in baculovirus infected Sf21 cells assessed as residual activity at 300 uM in presence of radiolabelled ATP by radiometric assay relative to control.

Data set [14] addresses RAC-beta serine/threonine-protein kinase (Homo sapiens) (UniProt P31751). Put plainly: Inhibition of recombinant human N-terminal His6-tagged PKBbeta (120 to 481 residues) expressed in baculovirus infected Sf21 cells assessed as residual activity at 300 uM in presence of radiolabelled ATP by radiometric assay relative to control.
For data set [15], the target named is Protein kinase C delta type (Homo sapiens) (UniProt Q05655). Put plainly: Inhibition of recombinant human N-terminal His6-tagged amino acids 2-end of PKCdelta expressed in Sf21 cells assessed as residual activity at 300 uM in presence of radiolabelled ATP by radiometric assay relative to control.
Chain of Protein kinase C delta type (Homo sapiens) (Q05655 whole entry, looked up, the tested form may be a part): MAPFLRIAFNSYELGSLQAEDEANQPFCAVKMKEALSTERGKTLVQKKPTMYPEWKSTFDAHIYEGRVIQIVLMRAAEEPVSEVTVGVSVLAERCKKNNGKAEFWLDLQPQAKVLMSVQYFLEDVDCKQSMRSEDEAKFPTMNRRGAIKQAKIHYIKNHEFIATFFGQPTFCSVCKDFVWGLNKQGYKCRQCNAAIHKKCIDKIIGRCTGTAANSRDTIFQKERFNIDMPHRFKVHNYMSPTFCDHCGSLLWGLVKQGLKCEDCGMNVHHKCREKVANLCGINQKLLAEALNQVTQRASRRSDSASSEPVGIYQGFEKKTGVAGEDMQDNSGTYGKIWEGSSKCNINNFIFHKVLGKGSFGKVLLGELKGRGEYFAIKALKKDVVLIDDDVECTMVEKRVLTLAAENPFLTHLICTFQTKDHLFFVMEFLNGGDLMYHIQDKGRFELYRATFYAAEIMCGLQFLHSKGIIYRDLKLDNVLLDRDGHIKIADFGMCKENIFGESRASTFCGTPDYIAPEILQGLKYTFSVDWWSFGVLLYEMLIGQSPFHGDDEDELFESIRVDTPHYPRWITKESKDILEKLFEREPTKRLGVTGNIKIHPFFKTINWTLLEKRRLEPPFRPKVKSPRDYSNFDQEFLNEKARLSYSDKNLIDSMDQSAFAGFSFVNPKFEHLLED
Data set [16] concerns the target Rho-associated protein kinase 1 (Homo sapiens) (UniProt Q13464). Put plainly: Inhibition of recombinant human N-terminal His6-tagged ROCK1 (17 to 535 residues) expressed in baculovirus infected Sf21 cells assessed as residual activity at 300 uM in presence of radiolabelled ATP by radiometric assay relative to control.
Data set [17] addresses T1, MAP kinase-activated protein kinase 2. Put plainly: Inhibition of recombinant human N-terminal GST-tagged MK2 (46 to 400 residues) expressed in Escherichia coli assessed as reduction in recombinant human HSP27 phosphorylation at 200 uM after 30 mins by Western blot analysis relative to control.
Target sequence in this assay (P49137 whole entry, looked up): as the sequence (P49137 whole entry) above
Data set [18] deals with Fibroblast. Description: Inhibition of TGF-beta1-induced collagen type 1 expression in serum-starved human keloid fibroblasts at 10 uM preincubated for 2 hrs followed TGF-beta1 addition measured after 24 hrs by Western blot analysis relative to control. It counts as functional.
Data set [19] concerns the target Mitogen-activated protein kinase 14 (Homo sapiens) (UniProt Q16539). Description: Inhibition of full length recombinant human N-terminal GST-tagged p38alpha MAP kinase expressed in Escherichia coli assessed as residual activity at 30 uM in presence of radiolabelled ATP by radiometric assay relative to control.
Data set [20] deals with Myosin light chain kinase, smooth muscle (Homo sapiens) (UniProt Q15746). Put plainly: Inhibition of recombinant human N-terminal His6-tagged MLCK (1425 to 1771 residues) expressed in baculovirus infected Sf21 cells assessed as residual activity at 30 uM in presence of radiolabelled ATP by radiometric assay relative to control.
Data set [21] has as its target T2, Interleukin-1 receptor-associated kinase 4 (Homo sapiens). Description: Inhibition of full length recombinant human N-terminal His6-tagged IRAK4 expressed in baculovirus infected Sf21 cells assessed as residual activity at 30 uM in presence of radiolabelled ATP by radiometric assay relative to control.
In data set [22] the target is RAC-beta serine/threonine-protein kinase (Homo sapiens) (UniProt P31751). Description: Inhibition of recombinant human N-terminal His6-tagged PKBbeta (120 to 481 residues) expressed in baculovirus infected Sf21 cells assessed as residual activity at 30 uM in presence of radiolabelled ATP by radiometric assay relative to control.
Chain of RAC-beta serine/threonine-protein kinase (Homo sapiens) (P31751 whole entry, the tested form may be a part): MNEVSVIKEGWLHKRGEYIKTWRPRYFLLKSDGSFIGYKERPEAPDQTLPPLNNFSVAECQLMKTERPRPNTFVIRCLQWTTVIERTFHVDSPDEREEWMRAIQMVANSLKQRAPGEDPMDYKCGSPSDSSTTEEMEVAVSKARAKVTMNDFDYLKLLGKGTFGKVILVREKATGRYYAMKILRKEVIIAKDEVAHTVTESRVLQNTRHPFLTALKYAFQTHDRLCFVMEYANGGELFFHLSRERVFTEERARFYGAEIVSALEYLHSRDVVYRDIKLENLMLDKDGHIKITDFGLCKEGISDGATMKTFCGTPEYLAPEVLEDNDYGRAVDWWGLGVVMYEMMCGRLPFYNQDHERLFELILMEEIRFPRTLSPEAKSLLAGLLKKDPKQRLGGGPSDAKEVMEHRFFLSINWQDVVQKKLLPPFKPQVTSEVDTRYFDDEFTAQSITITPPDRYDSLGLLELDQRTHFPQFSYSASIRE
For data set [23], the target named is Protein kinase C delta type (Homo sapiens) (UniProt Q05655). Put plainly: Inhibition of recombinant human N-terminal His6-tagged amino acids 2-end of PKCdelta expressed in Sf21 cells assessed as residual activity at 30 uM in presence of radiolabelled ATP by radiometric assay relative to control.
Data set [24] concerns the target Rho-associated protein kinase 1 (Homo sapiens) (UniProt Q13464). Put plainly: Inhibition of recombinant human N-terminal His6-tagged ROCK1 (17 to 535 residues) expressed in baculovirus infected Sf21 cells assessed as residual activity at 30 uM in presence of radiolabelled ATP by radiometric assay relative to control.
For data set [25], the system named is Fibroblast. Description: Inhibition of TGF-beta1-induced CTGF expression in serum-starved human keloid fibroblasts at 10 uM preincubated for 2 hrs followed TGF-beta1 addition measured after 24 hrs by Western blot analysis relative to control. It counts as functional.

Some results are limits rather than exact numbers.

Chain of Rho-associated protein kinase 1 (Homo sapiens) (Q13464 2-1354 limits assumed): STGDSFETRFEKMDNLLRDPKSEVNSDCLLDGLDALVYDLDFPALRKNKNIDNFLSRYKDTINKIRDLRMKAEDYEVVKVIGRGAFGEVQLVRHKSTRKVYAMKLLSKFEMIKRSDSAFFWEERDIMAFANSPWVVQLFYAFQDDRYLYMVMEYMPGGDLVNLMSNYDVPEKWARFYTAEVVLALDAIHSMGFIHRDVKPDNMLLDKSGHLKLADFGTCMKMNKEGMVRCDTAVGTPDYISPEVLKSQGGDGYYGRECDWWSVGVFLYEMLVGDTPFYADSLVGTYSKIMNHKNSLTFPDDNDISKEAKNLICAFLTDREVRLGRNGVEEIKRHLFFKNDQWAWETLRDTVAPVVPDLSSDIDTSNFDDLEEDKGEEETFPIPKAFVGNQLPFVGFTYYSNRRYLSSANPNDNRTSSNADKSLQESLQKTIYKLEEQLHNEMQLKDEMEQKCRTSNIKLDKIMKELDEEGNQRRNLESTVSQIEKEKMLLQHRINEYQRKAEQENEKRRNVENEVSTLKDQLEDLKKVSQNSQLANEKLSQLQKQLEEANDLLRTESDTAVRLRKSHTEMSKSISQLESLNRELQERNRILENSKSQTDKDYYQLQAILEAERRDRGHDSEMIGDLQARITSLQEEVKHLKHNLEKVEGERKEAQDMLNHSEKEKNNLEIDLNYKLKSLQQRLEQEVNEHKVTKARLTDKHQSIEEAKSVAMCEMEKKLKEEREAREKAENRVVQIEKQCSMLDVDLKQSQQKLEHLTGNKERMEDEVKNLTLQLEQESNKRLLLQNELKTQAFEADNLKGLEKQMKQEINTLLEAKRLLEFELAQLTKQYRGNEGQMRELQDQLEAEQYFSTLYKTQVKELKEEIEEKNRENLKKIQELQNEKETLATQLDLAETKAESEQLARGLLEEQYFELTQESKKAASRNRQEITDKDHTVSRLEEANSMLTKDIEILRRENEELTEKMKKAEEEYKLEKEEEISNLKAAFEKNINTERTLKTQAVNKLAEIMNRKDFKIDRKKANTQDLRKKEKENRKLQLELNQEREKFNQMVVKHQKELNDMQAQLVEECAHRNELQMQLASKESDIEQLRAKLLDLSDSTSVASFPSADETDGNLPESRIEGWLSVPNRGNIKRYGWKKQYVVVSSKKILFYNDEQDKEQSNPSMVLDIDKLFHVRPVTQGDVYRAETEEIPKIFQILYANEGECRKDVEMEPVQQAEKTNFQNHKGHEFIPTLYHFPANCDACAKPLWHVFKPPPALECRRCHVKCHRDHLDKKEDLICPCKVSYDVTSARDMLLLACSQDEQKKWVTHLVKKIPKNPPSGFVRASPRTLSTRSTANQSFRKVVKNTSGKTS

On to `Cc1ccc(-c2ccc3c(ccc4sc5c(c43)NC[C@@H](C)NC5=O)n2)cn1`, for which the IC50 is 7 µM on Bile salt export pump; 0.15 µM in the data set with U-937; 0.201 µM in [1]; 7 µM in [8]; 7 µM in [9]. Moreover, the “inhibition (INH)” value is on record as >90% with Rattus norvegicus [2] and 80% in the data set with Rattus norvegicus [3]. The Tmax in [4] was 0.167 h. In addition, in [5], the half-life is 9 h. The Activity result in the data set on Canis familiaris [6] and in the data set on Canis familiaris [7] was “<= 25000%” throughout.

Consider H-YARAAARQARAKALNRQLGVAA-OH, for which the half-maximal inhibitory concentration (IC50) in [10] is 5.8 µM. Further, the Activity in [11] was found to be 100%; in data set [12], 66%; in [13], 68%; in [14], 96%; in [15], 105%; in [16], 95%.

Consider H-KKKALNRQLGVAA-OH, for which, in data set [17], the inhibition came out at 64%.

`CC[C@H](C)[C@H](NC(=O)[C@H](CCCNC(=N)N)NC(=O)[C@H](CCCNC(=N)N)NC(=O)[C@H](CC(C)C)NC(=O)[C@H](Cc1c[nH]c2ccccc12)NC(=O)[C@H](C)NC(=O)[C@H](CCCCN)NC(=O)[C@@H](NC(=O)[C@H](CCCNC(=N)N)NC(=O)[C@H](CCCNC(=N)N)NC(=O)[C@H](CC(C)C)NC(=O)[C@@H](N)Cc1c[nH]c2ccccc12)[C@@H](C)CC)C(=O)N[C@@H](CCCCN)C(=O)N[C@@H](C)C(=O)N[C@@H](CC(C)C)C(=O)N[C@@H](CC(N)=O)C(=O)N[C@@H](CCCNC(=N)N)C(=O)N[C@@H](CCC(N)=O)C(=O)N[C@@H](CC(C)C)C(=O)NCC(=O)N[C@H](C(=O)N[C@@H](C)C(=O)N[C@@H](C)C(=O)O)C(C)C`: the inhibition at 10 µM stood at 76% in the data set with Fibroblast [18] and 68% in the data set with Fibroblast [25]. Besides, the IC50 in data set [10] is 0.74 µM. The Activity worked out at 61% in [19]; 4% in data set [20]; 12% in data set [21]; 18% in [22]; 11% in data set [23]; 0% in [24]. In data set [17], the inhibition was 80%.

Consider `COCCOCc1cccc(-c2ccc3c(ccc4sc5c(c43)NC[C@@H](C)NC5=O)n2)c1`, for which the IC50 (on Bile salt export pump; in data set [8]; in [9]) was 7 µM throughout.

A word on the IC50: it is the concentration at which inhibition is half-maximal. Broadly, the Tmax is the time at which the peak concentration occurs. A word on the inhibition: it is the relative decrease from the control value, in per cent.

These data come from ChEMBL document CHEMBL3808386, “Targeting Mitogen-Activated Protein Kinase-Activated Protein Kinase 2 (MAPKAPK2, MK2): Medicinal Chemistry Efforts To Lead Small Molecule Inhibitors to Clinical Trials” (J Med Chem, 2016).
